Measured values taken from PMC7311426, “An amphipathic peptide with antibiotic activity against multidrug-resistant Gram-negative bacteria” (Nature Communications, 2020).
Values after ≈ are worked out from the molar mass of the structure shown.

Tests used:
[1] = tested on: P. aeruginosa; test: microbe, parasite or virus in culture; details: Pseudomonas aeruginosa, ATCC27853, read-out: MIC against P. aeruginosa (ATCC 27853), as stated for the pneumonia model
In short: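 MICs were scored by eye after 18-20 h static incubation at 37 °C, with bacteria at 5 × 10^5 CFU mL^−1 in MHB. Peptides were serially diluted 2-fold over 12 points, top 128 or 64 μg mL^−1. CAMHB (CLSI) and 1% agarose-MHB variants were also run, at least six replicates.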

[2] = tested on: P. aeruginosa ATCC 27853; test: Murine pneumonia model, aerosolized treatment; format: in vivo, P. aeruginosa in CD1 mice; details: lung burden; Tobramycin 4.2mg/mL 20 min; group 9
Procedure: Peritonitis and UTI murine models were performed at the Department of Microbiology & Infection Control, Statens Serum Institute, Copenhagen, Denmark, under approval by the National Committee of Animal Ethics, Denmark, and adhered to the standards of EU Directive 2010/63/EU. The mouse pneumonia model was performed by Evotec Ltd, United Kingdom, under UK Home Office Licenses and with local ethical committee clearance. All animal studies were contracted by Adenium Biotech ApS.
Peptides were prepared in Ringer’s acetate pH 6.0 (vehicle) at 34 mg mL^−1. Comparator antibiotics included meropenem (Meronem®, AstraZeneca), polymyxin B sulfate (Sigma) and tobramycin (Novartis).
P. aeruginosa pneumonia in vivo model was prepared as follows: male CD1 mice were immunosuppressed with cyclophosphamide 200 mg kg^−1 on day −4 and 150 mg kg^−1 on day −1. […] Mouse weights were recorded once-daily following infection to ensure animals remained within ethical limits and to monitor efficacy of treatment. All mice remaining in the study at 34 h post infection were euthanized and the burden of P. aeruginosa in the lungs was determined. […] The lung homogenates were diluted appropriately then quantitatively cultured on to Pseudomonas-selective agar and incubated at 37 °C for 24 h before the number of colonies was counted. […]

`NC[C@H]1O[C@H](O[C@H]2[C@H](O)[C@@H](O[C@H]3O[C@H](CO)[C@@H](O)[C@H](N)[C@H]3O)[C@H](N)C[C@@H]2N)[C@H](N)C[C@@H]1O` [tobramycin] was tested, and the MIC [1] was 0.5 to 2 µg/mL (≈ 1.07 to 4.28 µM) and the “Log Group Geometric mean (CFU/g)” value [2] was 2.68 CFU/g.
